{"source": "PubChem BioAssay AID2060603", "about": "(Molecular Pharmacology Branch, DTP, NCI, 2025);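 also: spheroids exposed to agents for seven days before readout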", "system": "422866-222-R5-J1-PDC spheroid viability", "test": "Anticancer human tumor 422866-222-R5-J1-PDC patient-derived pancreatic adenocarcinoma cell line growth inhibition [CLK]", "conditions": "spheroids with HUVEC and MSC; for IC50: curve of first compound; for viability, T/C: stronger effect = lower value", "summary_of_the_method": "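Patient-derived tumor cells grown as complex spheroids with HUVEC endothelial cells and mesenchymal stem cells, treated with drug combinations. Concentrations descend in half-log steps from near clinical Cmax, or from 10 microM if Cmax unknown.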", "key": {"[1]": {"conditions": "second compound 0.0316 µM, first compound 0.0316 µM"}, "[2]": {"conditions": "second compound 0.0316 µM, first compound 0.1 µM"}, "[3]": {"conditions": "second compound 0.0316 µM, first compound 0.316 µM"}, "[4]": {"conditions": "second compound 0.0316 µM, first compound 1 µM"}, "[5]": {"conditions": "second compound 0.0316 µM, first compound 3.16 µM"}, "[6]": {"conditions": "second compound 0.0316 µM, first compound 10 µM"}, "[7]": {"conditions": "second compound 0.1 µM, first compound 0.0316 µM"}, "[8]": {"conditions": "second compound 0.1 µM, first compound 0.1 µM"}, "[9]": {"conditions": "second compound 0.1 µM, first compound 0.316 µM"}, "[10]": {"conditions": "second compound 0.1 µM, first compound 1 µM"}, "[11]": {"conditions": "second compound 0.1 µM, first compound 3.16 µM"}, "[12]": {"conditions": "second compound 0.1 µM, first compound 10 µM"}, "[13]": {"conditions": "second compound 0.316 µM, first compound 0.0316 µM"}, "[14]": {"conditions": "second compound 0.316 µM, first compound 0.1 µM"}, "[15]": {"conditions": "second compound 0.316 µM, first compound 0.316 µM"}, "[16]": {"conditions": "second compound 0.316 µM, first compound 1 µM"}, "[17]": {"conditions": "second compound 0.316 µM, first compound 3.16 µM"}, "[18]": {"conditions": "second compound 0.316 µM, first compound 10 µM"}, "[19]": {"conditions": "second compound 1 µM, first compound 0.0316 µM"}, "[20]": {"conditions": "second compound 1 µM, first compound 0.1 µM"}, "[21]": {"conditions": "second compound 1 µM, first compound 0.316 µM"}, "[22]": {"conditions": "second compound 1 µM, first compound 1 µM"}, "[23]": {"conditions": "second compound 1 µM, first compound 3.16 µM"}, "[24]": {"conditions": "second compound 1 µM, first compound 10 µM"}, "[25]": {"conditions": "second compound 3.16 µM, first compound 0.0316 µM"}, "[26]": {"conditions": "second compound 3.16 µM, first compound 0.1 µM"}, "[27]": {"conditions": "second compound 3.16 µM, first compound 0.316 µM"}, "[28]": {"conditions": "second compound 3.16 µM, first compound 1 µM"}, "[29]": {"conditions": "second compound 3.16 µM, first compound 3.16 µM"}, "[30]": {"conditions": "second compound 3.16 µM, first compound 10 µM"}, "[31]": {"conditions": "second compound 10 µM, first compound 0.0316 µM"}, "[32]": {"conditions": "second compound 10 µM, first compound 0.1 µM"}, "[33]": {"conditions": "second compound 10 µM, first compound 0.316 µM"}, "[34]": {"conditions": "second compound 10 µM, first compound 1 µM"}, "[35]": {"conditions": "second compound 10 µM, first compound 3.16 µM"}, "[36]": {"conditions": "second compound 10 µM, first compound 10 µM"}}}
{"smiles": "COc1ccc([C@@H](O)c2cc(-c3ncnc4cc(N5CCOCC5)ccc34)c(F)cc2Cl)nn1", "note": "+ CNC(=O)c1ccc(Nc2nc(OC3CCCC3)c3c(-c4ccc5nc(C)oc5c4)c[nH]c3n2)c(OC)c1", "values": [{"measurement": "IC50", "setting": "second compound 0.0316 µM", "result": 2890, "unit": "nM"}, {"measurement": "IC50", "setting": "second compound 0.1 µM", "result": 2710, "unit": "nM"}, {"measurement": "IC50", "setting": "second compound 0.316 µM", "result": 775, "unit": "nM"}, {"measurement": "IC50", "setting": "second compound 1 µM", "result": 617, "unit": "nM"}, {"measurement": "IC50", "setting": "second compound 3.16 µM", "result": 548, "unit": "nM"}, {"measurement": "IC50", "setting": "second compound 10 µM", "result": 1300, "unit": "nM"}, {"measurement": "viability, T/C", "setting": "[1]", "result": 113, "unit": "%"}, {"measurement": "viability, T/C", "setting": "[2]", "result": 91.6, "unit": "%"}, {"measurement": "viability, T/C", "setting": "[3]", "result": 77.5, "unit": "%"}, {"measurement": "viability, T/C", "setting": "[4]", "result": 70.2, "unit": "%"}, {"measurement": "viability, T/C", "setting": "[5]", "result": 45.1, "unit": "%"}, {"measurement": "viability, T/C", "setting": "[6]", "result": 35.2, "unit": "%"}, {"measurement": "viability, T/C", "setting": "[7]", "result": 106, "unit": "%"}, {"measurement": "viability, T/C", "setting": "[8]", "result": 81.9, "unit": "%"}, {"measurement": "viability, T/C", "setting": "[9]", "result": 84.1, "unit": "%"}, {"measurement": "viability, T/C", "setting": "[10]", "result": 62.5, "unit": "%"}, {"measurement": "viability, T/C", "setting": "[11]", "result": 45.4, "unit": "%"}, {"measurement": "viability, T/C", "setting": "[12]", "result": 34.5, "unit": "%"}, {"measurement": "viability, T/C", "setting": "[13]", "result": 69.7, "unit": "%"}, {"measurement": "viability, T/C", "setting": "[14]", "result": 63.1, "unit": "%"}, {"measurement": "viability, T/C", "setting": "[15]", "result": 73.1, "unit": "%"}, {"measurement": "viability, T/C", "setting": "[16]", "result": 44.7, "unit": "%"}, {"measurement": "viability, T/C", "setting": "[17]", "result": 44.4, "unit": "%"}, {"measurement": "viability, T/C", "setting": "[18]", "result": 32.9, "unit": "%"}, {"measurement": "viability, T/C", "setting": "[19]", "result": 63.3, "unit": "%"}, {"measurement": "viability, T/C", "setting": "[20]", "result": 58, "unit": "%"}, {"measurement": "viability, T/C", "setting": "[21]", "result": 57, "unit": "%"}, {"measurement": "viability, T/C", "setting": "[22]", "result": 45.4, "unit": "%"}, {"measurement": "viability, T/C", "setting": "[23]", "result": 38.3, "unit": "%"}, {"measurement": "viability, T/C", "setting": "[24]", "result": 37.9, "unit": "%"}, {"measurement": "viability, T/C", "setting": "[25]", "result": 54.5, "unit": "%"}, {"measurement": "viability, T/C", "setting": "[26]", "result": 66.2, "unit": "%"}, {"measurement": "viability, T/C", "setting": "[27]", "result": 43.5, "unit": "%"}, {"measurement": "viability, T/C", "setting": "[28]", "result": 47.8, "unit": "%"}, {"measurement": "viability, T/C", "setting": "[29]", "result": 45.9, "unit": "%"}, {"measurement": "viability, T/C", "setting": "[30]", "result": 37.7, "unit": "%"}, {"measurement": "viability, T/C", "setting": "[31]", "result": 48.5, "unit": "%"}, {"measurement": "viability, T/C", "setting": "[32]", "result": 63.6, "unit": "%"}, {"measurement": "viability, T/C", "setting": "[33]", "result": 56.8, "unit": "%"}, {"measurement": "viability, T/C", "setting": "[34]", "result": 44.1, "unit": "%"}, {"measurement": "viability, T/C", "setting": "[35]", "result": 48.9, "unit": "%"}, {"measurement": "viability, T/C", "setting": "[36]", "result": 36.6, "unit": "%"}]}
{"smiles": "COc1cccc2c1C(=O)c1c(O)c3c(c(O)c1C2=O)CC(O)(C(=O)CO)CC3OC1CC(N)C(O)C(C)O1", "note": "(centres undefined) + CNC(=O)c1ccc(Nc2nc(OC3CCCC3)c3c(-c4ccc5nc(C)oc5c4)c[nH]c3n2)c(OC)c1", "values": [{"measurement": "IC50", "setting": "second compound 0.0316 µM", "result": 160, "unit": "nM"}, {"measurement": "IC50", "setting": "second compound 0.1 µM", "result": 106, "unit": "nM"}, {"measurement": "IC50", "setting": "second compound 0.316 µM", "result": 85.5, "unit": "nM"}, {"measurement": "IC50", "setting": "second compound 1 µM", "result": 79.1, "unit": "nM"}, {"measurement": "IC50", "setting": "second compound 3.16 µM", "result": 109, "unit": "nM"}, {"measurement": "IC50", "setting": "second compound 10 µM", "result": "< 31.6", "unit": "nM"}, {"measurement": "viability, T/C", "setting": "[1]", "result": 65, "unit": "%"}, {"measurement": "viability, T/C", "setting": "[2]", "result": 60.4, "unit": "%"}, {"measurement": "viability, T/C", "setting": "[3]", "result": 34.8, "unit": "%"}, {"measurement": "viability, T/C", "setting": "[4]", "result": 28.6, "unit": "%"}, {"measurement": "viability, T/C", "setting": "[5]", "result": 30.4, "unit": "%"}, {"measurement": "viability, T/C", "setting": "[6]", "result": 27.8, "unit": "%"}, {"measurement": "viability, T/C", "setting": "[7]", "result": 66.2, "unit": "%"}, {"measurement": "viability, T/C", "setting": "[8]", "result": 50.3, "unit": "%"}, {"measurement": "viability, T/C", "setting": "[9]", "result": 37.8, "unit": "%"}, {"measurement": "viability, T/C", "setting": "[10]", "result": 28.2, "unit": "%"}, {"measurement": "viability, T/C", "setting": "[11]", "result": 30.9, "unit": "%"}, {"measurement": "viability, T/C", "setting": "[12]", "result": 28.6, "unit": "%"}, {"measurement": "viability, T/C", "setting": "[13]", "result": 67.6, "unit": "%"}, {"measurement": "viability, T/C", "setting": "[14]", "result": 47.1, "unit": "%"}, {"measurement": "viability, T/C", "setting": "[15]", "result": 38.7, "unit": "%"}, {"measurement": "viability, T/C", "setting": "[16]", "result": 36.6, "unit": "%"}, {"measurement": "viability, T/C", "setting": "[17]", "result": 35.2, "unit": "%"}, {"measurement": "viability, T/C", "setting": "[18]", "result": 33.4, "unit": "%"}, {"measurement": "viability, T/C", "setting": "[19]", "result": 60.1, "unit": "%"}, {"measurement": "viability, T/C", "setting": "[20]", "result": 47.5, "unit": "%"}, {"measurement": "viability, T/C", "setting": "[21]", "result": 31.1, "unit": "%"}, {"measurement": "viability, T/C", "setting": "[22]", "result": 32.2, "unit": "%"}, {"measurement": "viability, T/C", "setting": "[23]", "result": 31.2, "unit": "%"}, {"measurement": "viability, T/C", "setting": "[24]", "result": 30.5, "unit": "%"}, {"measurement": "viability, T/C", "setting": "[25]", "result": 48.6, "unit": "%"}, {"measurement": "viability, T/C", "setting": "[26]", "result": 53.3, "unit": "%"}, {"measurement": "viability, T/C", "setting": "[27]", "result": 39, "unit": "%"}, {"measurement": "viability, T/C", "setting": "[28]", "result": 30.1, "unit": "%"}, {"measurement": "viability, T/C", "setting": "[29]", "result": 34.3, "unit": "%"}, {"measurement": "viability, T/C", "setting": "[30]", "result": 35.9, "unit": "%"}, {"measurement": "viability, T/C", "setting": "[31]", "result": 48.9, "unit": "%"}, {"measurement": "viability, T/C", "setting": "[32]", "result": 41.1, "unit": "%"}, {"measurement": "viability, T/C", "setting": "[33]", "result": 35.2, "unit": "%"}, {"measurement": "viability, T/C", "setting": "[34]", "result": 31.1, "unit": "%"}, {"measurement": "viability, T/C", "setting": "[35]", "result": 32, "unit": "%"}, {"measurement": "viability, T/C", "setting": "[36]", "result": 48.9, "unit": "%"}]}
